Experimental findings from patent US4425356A, “Lankacidin derivatives used in swine husbandry” (Takeda Chemical Industries, Ltd., priority 1980, dated 1984) are described below.

Series [1] has as its system Treponema hyodysenteriae 78/A strain. The series can be described thus: efficacy against swine dysentery under experimental infection conditions in pigs (drug in feed), Test Examples 5-7. The series is classed as in vivo, Landrace pigs. Particulars: for Number of days on which diarrhea was observed / Number of days on which mucous bloody stool was observed / Number of pigs showing signs of infection/number of pigs used: 21-day test period; for Body weight gain / Feed conversion / Feed intake: 21 day period; for Body weight gain / Feed conversion / Feed intake / Body weight at the time of completion of test: mean per head; for effect against swine dysentery (in words): pig, in vivo. How it is done:
Lankacidin C was tested for efficacy against swine dysentery under experimental infection conditions. Thus, twelve 6-week-old Landrace pigs (4 per group) were used. The test drug was admixed to a concentration of 100 ppm with the domestically formulated starter feed for young pigs without antibiotics. The animals were provided with the ration ad libitum. Infection of the pigs was effected by direct intragastrical administration to the SPF pigs of an inoculum prepared by preliminary anaerobic cultivation of the Treponema hyodysenteriae 78/A strain on a 5% horse blood added agar plate, mashing together with the culture medium and admixing with 5% mucin added phosphate buffer. Colonic contents and mucosa were collected from pigs which developed typical signs of swine dysentery, and diluted two-fold with 5% mucin added phosphate buffer. The dilution was used as the final inoculum, and 100 ml of the dilution was directly injected into the stomach of test pigs at the age of 7 weeks (fasted for 24 hours before infection). The pigs were fed for 21 days following infection.
The data are each the mean value per head for the 21day period from
infection to autopsy. Different alphabetic letters on the same line
indicate that there is a significant difference between the data to which
they are attached (P <0.05).
Lankacidin C was tested at concentrations in feed of 100 ppm and lower by the same method as in Test Example 5, with carbadox, a commonly used anti-swine-dysentery agent, for comparison.
The anti-swine-dysentery effects of 10 ppm each of lankacidin A and lankacidin C 14-propionate were examined by the procedure of Test Example 6.

Series [2] has as its system Treponema hyodysenteriae. Description: in vitro antibacterial activity (MIC, agar dilution method), Test Examples 1-3. It counts as cell-based. Particulars: 37° C., 2 days, anaerobic; for MIC: Brachyspira hyodysenteriae, 48 h. How it is done: Several agents were tested for in vitro antibacterial activity against Treponema hyodysenteriae, the pathogenic bacteria causing swine dysentery, by the method of testing drug sensitivity of Treponema hyodysenteriae (Kashiwazaki et al. Abstracts of Papers presented at the 82nd Meeting of the Japanese Society of Veterinary Science, page 101, 1976).
(1) Strains: These strains belong to Treponema hyodysenteriae isolated
from the bloody mucous faeces of dysenteric pigs in Japan.
(2) Antimicrobial activity assay: Agar dilution method
(3) Inoculum size: A loopful of bacterial suspension (10^6 CFU/ml)
(4) Cultural conditions: GasPak anaerobic system (BBL), 37° C., 2
Typical agents among compound (I) were tested for in vitro antibacterial activity by the same method as in Test Example 1.
The experimental conditions are the same as in Test Example 1 (Table 1).
Agents of compound (I) were tested for in vitro antibacterial activity by the same method as in Test Example 1.
For orientation: In agar dilution, organisms are placed on agar that contains the substance at set levels.

For series [3], the system named is Treponema hyodysenteriae. Description: efficacy in experimental infection in mice with swine dysentery, Test Example 4. The series is classed as in vivo. Particulars: 5 mg/kg/day oral, day 1 to day 4; seven days after infection. How it is done: Lankacidin A, lankacidin C, lankacidin C 8-acetate, lankacidin C 14-propionate, lankacidinol A and lankacidinol were tested for efficacy against swine dysentery in experimental infection in mice with swine dysentery.
The similar experimental infection model of swine dysentery in mice as that described, for example, by Joens et al. in Infection and Immunity, 25, 757-760 (1979), American Journal of Veterinary Research, 41, 1225-1226 (1980) and Veterinary Record, 107, 527-529 (1980) was used. Thus, a field isolate of Treponema hyodysenteriae anaerobically cultivated on the 5% defibrinated horse blood added Trypticase soy agar (BBL) plate was mashed together with the culture medium and diluted two-fold with Trypticase soy broth (BBL). Mice were inoculated intragastrically with this infecting dilution. Each test agent was suspended in 5% gum arabic solution and forcibly administered orally from day 1 to day 4 following infection. Seven days after infection, the cecum was examined for lesions, and the cecum was mashed together with the contents and subjected to Treponema hyodysenteriae counting. Excellent efficacy was produced in each of the drug-administered groups.

Series [4] relates to Treponema hyodysenteriae 78/A strain. Description: therapeutic administration in pigs showing clinical signs of swine dysentery, Test Examples 8-9. It counts as in vivo. Particulars: for Condition of feces: Table 9, individual pig. How it is done: This test was conducted under the conditions of so-called therapeutic administration. […] The method of infection was the same as in Test Example 5. […] Simultaneously with showing of the signs, the pigs were provided with a feed containing 50 ppm of lankacidin C. […] After 2 days, the viable count for the pathogen in feces was below the detection limit (10^2 CFU/g).
The condition of feces was rated at one of the following four classes:
.circle. normal; loose; diarrheal; .circleincircle. mucous and bloody
count is below the detection limit (10^2 CFU/g).
The symbol * indicates those days on which the feed containing 50 ppm of
lankacidin C was given.
Lankacidins were tested for therapeutic effects in swine dysentery under therapeutic conditions in the same manner as in Test Example 8. The effects were judged based on the condition of feces.
The condition of feces was rated at one of the following four classes;
The symbol * indicates the days on which the feed containing 50 ppm of th

Series [5] can be described thus: acute toxicity tests with mice. Particulars: mouse, in vivo. From the text:
The toxicity of compound (I) in animals is very low.

The mark [6] stands for this setting: strain 78/A, read-out: Minimum Inhibitory Concentration.
The mark [7] stands for this setting: strain CD1 (CD-1), read-out: Minimum Inhibitory Concentration.
Setting [8] is: strain DJ70P1, read-out: Minimum Inhibitory Concentration.
[9] abbreviates: strain MK-2, read-out: Minimum Inhibitory Concentration.

In brackets after ≈: the same amount, converted by molar mass. Where two headings read alike, the source gives them in different places. Bounds are passed on as bounds.

Usually LD50 stands for the dose at which mortality reaches 50%. Consider `CCC(=O)OC1C=CC(C)=CCC(O)C=CC(C)=CC(NC(=O)C(C)=O)C2(C)C(=O)OC(C1)C(C)C2=O` (stereo not drawn) [Lankacidin C 14-propionate, lankacidin C 14-propionate], for which the “Number of pigs from which the pathogen was detected, in colonic mucosa” value in series [1] (10 ppm in feed) is given as 0. For the same molecule, the “Number of pigs from which the pathogen was detected, in feces” value in series [1] (10 ppm in feed) was 0. Besides, the “Number of pigs showing colonic lesions” value in series [1] (10 ppm in feed) is reported as 0. The “Number of days on which diarrhea was observed” value in series [1] (10 ppm in feed) was 0 days. Moreover, the “Number of days on which mucous bloody stool was observed” value in series [1] (10 ppm in feed) is 0 days. Also, the “Number of pigs showing signs of infection/number of pigs used” value in series [1] (10 ppm in feed) is listed as 0/4. This molecule also showed a Body weight gain in series [1] (10 ppm in feed) of 562 grams/day. The Feed conversion in series [1] (10 ppm in feed) came out at 1.81. In addition, the Feed intake in series [1] (10 ppm in feed) came out at 21.1 kg. Moreover, in series [1] (10 ppm in feed), the “Body weight at the time of completion of test” value was 23.1 kg. Moreover, the “effect against swine dysentery (in words)” value in series [1] is recorded as “distinctly effective against swine dysentery”. The MIC is 1.56 µg/mL (≈ 3.03 µM) in the series on Treponema hyodysenteriae [2] (setting [6]), 3.13 µg/mL (≈ 6.07 µM) in the series on Treponema hyodysenteriae [2] (setting [7]), 3.13 µg/mL (≈ 6.07 µM) in the series on Treponema hyodysenteriae [2] (setting [8]) and 1.56 µg/mL (≈ 3.03 µM) in the series with Treponema hyodysenteriae [2] (setting [9]). Moreover, the “Number of mice from which the pathogen was detected/number of mice tested” value in the series with Treponema hyodysenteriae [3] was 1/5. In the series on Treponema hyodysenteriae [3], the “Number of mice with cecal lesions/number of mice tested” value is 0/5. Also, in series [4] (50 ppm in feed), the “therapeutic effect in swine dysentery (in words)” value is listed as “therapeutically effective”. Moreover, the Condition of feces result was “.circle” in series [4] (50 ppm in feed days 0-6, day 7); “.circle” in series [4] (50 ppm in feed days 0-6, day 8); “.circle” in series [4] (50 ppm in feed days 0-6, day 9); “.circle” in series [4] (50 ppm in feed days 0-6, day 10); “.circle” in series [4] (50 ppm in feed days 0-6, day 11); “.circle” in series [4] (50 ppm in feed days 0-6, day 12). In addition, the Condition of feces result is listed as “.circle” in series [4] (50 ppm in feed days 0-6, day 13); “.circle” in series [4] (50 ppm in feed days 0-6, day 14); “.circle” in series [4] (50 ppm in feed days 0-6, day 15); “.circle” in series [4] (50 ppm in feed days 0-6, day 16); “.circle” in series [4] (50 ppm in feed days 0-6, day 17); “.circle” in series [4] (50 ppm in feed days 0-6, day 18). In addition, the Condition of feces result in series [4] (50 ppm in feed days 0-6, day 19) is on record as “.circle”; in series [4] (50 ppm in feed days 0-6, day 20), “.circle”; in series [4] (50 ppm in feed days 0-6, day 21) it was “.circle”; in series [4] (50 ppm in feed, day 0 after manifestation of signs), “.circleincircle”; in series [4] (50 ppm in feed, day 1), “.circle”; in series [4] (50 ppm in feed, day 2), “.circle”. The Condition of feces result in series [4] (50 ppm in feed, day 3) was “.circle”; in series [4] (50 ppm in feed, day 4), “.circle”; in series [4] (50 ppm in feed, day 5) it was “.circle”; in series [4] (50 ppm in feed, day 6) it was “.circle”. Moreover, the LD50 in series [5] (ip, intraperitoneal, read-out: intraperitoneal LD50) was greater than 10000 mg/kg; in series [5] (oral, read-out: oral LD50) it was greater than 10000 mg/kg.
Turning to Maridomycin [reference compound], in series [1] (100 ppm in feed), the “Number of pigs from which the pathogen was detected, in colonic mucosa” value was 4; the “Number of pigs from which the pathogen was detected, in feces” value is reported as 4; the “Number of pigs showing colonic lesions” value turned out to be 4; the “Number of days on which diarrhea was observed” value was 11.0 days. Besides, in series [1] (100 ppm in feed), the “Number of days on which mucous bloody stool was observed” value turned out to be 5.5 days, the “Number of pigs showing signs of infection/number of pigs used” value was 3/4, the Body weight gain was found to be 430 grams/day and the Feed conversion is recorded as 2.09. In series [1] (100 ppm in feed), the Feed intake turned out to be 18.8 kg and the “Body weight at the time of completion of test” value turned out to be 21.9 kg. Moreover, the “effect against swine dysentery (in words)” value in series [1] is on record as “ineffective”. For the same molecule, the “Minimum Inhibitory Concentration” value in the series with Treponema hyodysenteriae [2] (strain 78/A) was greater than 100 µg/mL. Besides, in the series on Treponema hyodysenteriae [2] (strain CD1 (CD-1)), the “Minimum Inhibitory Concentration” value was greater than 100 µg/mL. In the series with Treponema hyodysenteriae [2] (strain DJ70P1), the “Minimum Inhibitory Concentration” value is greater than 100 µg/mL. In addition, the “Minimum Inhibitory Concentration” value in the series with Treponema hyodysenteriae [2] (strain MK-2) was greater than 100 µg/mL.
As to `CC1=CCC(O)C=CC(C)=CC(NC(=O)C(C)O)C2(C)C(=O)OC(CC(O)C=C1)C(C)C2=O` (stereo not drawn) [Lankacidinol, lankacidinol], the MIC with Treponema hyodysenteriae [2] (read-out: Minimum Inhibitory Concentration, strain 78/A) is 12.5 µg/mL (≈ 27.1 µM); in the series on Treponema hyodysenteriae [2] (read-out: Minimum Inhibitory Concentration, strain CD1 (CD-1)) it was 12.5 µg/mL (≈ 27.1 µM); in the series with Treponema hyodysenteriae [2] (read-out: Minimum Inhibitory Concentration, strain DJ70P1) it was 25 µg/mL (≈ 54.2 µM); with Treponema hyodysenteriae [2] (read-out: Minimum Inhibitory Concentration, strain MK-2), 25 µg/mL (≈ 54.2 µM). For the same molecule, in the series on Treponema hyodysenteriae [3], the “Number of mice from which the pathogen was detected/number of mice tested” value is 0/5. Moreover, the “Number of mice with cecal lesions/number of mice tested” value with Treponema hyodysenteriae [3] was 0/5.
Regarding `CC(=O)OC1C=CC(C)=CC(NC(=O)C(C)=O)C2(C)C(=O)OC(CC(O)C=CC(C)=CC1)C(C)C2=O` (stereo not drawn) [Lankacidin C 8-acetate, lankacidin C 8-acetate], the MIC was determined as 0.39 µg/mL (≈ 0.778 µM) in the series with Treponema hyodysenteriae [2] (setting [6]), 0.39 µg/mL (≈ 0.778 µM) with Treponema hyodysenteriae [2] (setting [7]), 0.78 µg/mL (≈ 1.56 µM) in the series on Treponema hyodysenteriae [2] (setting [8]) and 0.39 µg/mL (≈ 0.778 µM) in the series with Treponema hyodysenteriae [2] (setting [9]). For the same molecule, the “Number of mice from which the pathogen was detected/number of mice tested” value in the series on Treponema hyodysenteriae [3] is given as 0/5. The “Number of mice with cecal lesions/number of mice tested” value in the series with Treponema hyodysenteriae [3] is listed as 0/5.
With `CC(=O)OC1C=CC(C)=CCC(O)C=CC(C)=CC(NC(=O)C(C)O)C2(C)C(=O)OC(C1)C(C)C2=O` (stereo not drawn) [Lankacidinol A, lankacidinol A], the MIC came to 12.5 µg/mL (≈ 24.8 µM) with Treponema hyodysenteriae [2] (setting [6]), 25 µg/mL (≈ 49.6 µM) with Treponema hyodysenteriae [2] (setting [7]), 25 µg/mL (≈ 49.6 µM) in the series with Treponema hyodysenteriae [2] (setting [8]) and 25 µg/mL (≈ 49.6 µM) with Treponema hyodysenteriae [2] (setting [9]). Also, the “Number of mice from which the pathogen was detected/number of mice tested” value in the series on Treponema hyodysenteriae [3] is 1/5. In the series on Treponema hyodysenteriae [3], the “Number of mice with cecal lesions/number of mice tested” value is 0/5.
